Patent US20250169495A1, “COMPOSITIONS AND METHODS FOR CONTROLLING DROSOPHILA FLIES” (Rutgers, The State University of New Jersey, priority 2023, published 2025)

How the values were obtained:
[1] = system: male and female Drosophila suzukii antennae; experiment: Electroantennogram (EAG) assay; details: for antennal (EAG) response: 0.001-10 mg doses in hexane, N=10; for strength of EAG response compared among treatments: 0.001-10 mg doses
Description: Electroantennogram (EAG) assays were conducted to determine the antennal response of sexually mature male and female D. suzukii to ethyl butanoate, ethyl (E)-but-2-enoate, and 2-pentylfuran. The antennal responses of male and female D. suzukii to each compound were tested at five doses (0.001 mg, 0.01 mg, 0.1 mg, 1 mg, and 10 mg) diluted in hexane. The stimulus cartridge preparations, antennal preparations, and EAG apparatus used were similar to those previously described in the literature. Stimulus applicators consisted of a 14.5-cm-long glass Pasteur pipette containing 20 μL of each volatile dose (or hexane control) pipetted onto a 6×0.5-cm strip of filter paper. The applicators containing the impregnated filter paper were placed under the fume hood for 2 min to allow the hexane to evaporate. For the recording and base electrodes, a silver wire was inserted into a drawn capillary tube filled with phosphate-buffered saline (NaCl, 4 g; NA2HPO4, 0.57 g; KH2PO4, 0.1 g; KCl, 0.1 g in 500 ml distilled water). To attach the base electrode to the fly, the fly's abdomen was removed, and the sharp tip of the saline-filled capillary tube was pulled directly into the thoracic cavity. Once the fly preparation was mounted, the recording electrode was carefully moved toward the antenna using a micromanipulator until the antenna touched the pool of saline solution on the recording electrode. Antennal preparations were exposed to a constant stream of charcoal-filtered and humidified air at a rate of 1.5 l/min.
The EAG apparatus consisted of an IDAC-02 interface board for data acquisition and used Syntech software (Syntech Ltd., Hilversum, The Netherlands) for recording, storing, and quantifying EAG responses. Antennal preparations were primed with 1 mg of acetoin, a known attractant and antennally active compound, to ensure that the antennae were prepared correctly and responsive (positive control). Then, the antennae were exposed to a hexane control, followed by exposure to increasing doses of one of the volatiles. Each antenna was exposed to four rounds of each dose of a single compound before being discarded. Six antennae were tested daily: three from males and three from females. Test and control compounds were applied at 10 second(s) intervals at a pulse rate of 0.5 s, with a 1-min interval between each stimulus. Maximum amplitudes of depolarizations were measured (in millivolts) for each compound with the response from the hexane-only controls subtracted from the other doses to normalize the antennal response. In total, each dose of each compound was replicated 10 times for each sex.
To analyze the effect of dose of the three repellents on D. suzukii antennal responses, a generalized linear model (GLM) was used with a Poisson distribution and a log link function in SPSS Statistics 23.0 (IBM Corp, Armonk, NY, USA). The model included ‘Treatment’ (ethyl butanoate, ethyl (E)-but-2-enoate, and 2-pentylfuran), ‘Dose’, ‘Sex’, and their interactions as independent variables. This analysis, when significant, was followed by post hoc Bonferroni tests (α=0.05) to determine individual differences among groups. Prior to analysis, EAG data were normalized relative to the response to the hexane control.

[2] = system: Drosophila suzukii; experiment: Semi-field cage oviposition deterrence, potted blueberry bushes; type: in vivo; details: N=10; for fewer eggs laid in treated berries than in control berries: sachet 2.5 mL, 24 h
Description: Semi-field cage experiments were conducted from June until July to evaluate the oviposition deterrent effects of ethyl butanoate, ethyl (E)-but-2-enoate, and 2-pentylfuran against D. suzukii. These experiments are considered semi-field because they took place in an isolated open field surrounded by woods with potted plants inside outdoor cages. The cages were constructed using polyvinyl chloride (PVC) pipes (3.8 cm diameter) to construct 1.8 m×1.8 m×1.8 m frames. Screen tents (Lumite® screen portable field cages; BioQuip, CA, USA) were placed over the PVC frames, and large nails were used to secure the tents to the ground (FIG. 6A). Cages were spaced 10 m apart. To obtain blueberries for the experiment, prior to the start of the experiment, field-grown highbush blueberry (Vaccinium corymbosum L. var. ‘Bluecrop’) clusters were bagged early in the season with cloth bags when they were still green to prevent infestation from resident D. suzukii populations for use in the experiment. In addition, 80 3-to-4-year-old potted blueberry bushes were stripped of their berries and used for the experiment. On the day of testing, two bushes were placed in each cage (FIG. 6B). Each bush in the tent was surrounded by a metal tomato cage. The bagged blueberry fruit clusters in the field were clipped and brought inside the cages. Clusters of 10 berries were created and placed in water picks. Five berry clusters were distributed randomly and evenly on each tomato cage at different heights using green twist ties (FIG. 6B). The sachets used for the treatments were prepared according to the methods described by Gale et al. (2024). They were constructed from 8 cm strips of polyethylene tubing (5.1 cm width, 2 MIL thickness; ULINE, Pleasant Prairie, WI, USA) and polyester felt (Grainger, Lake Forest, IL, USA). One end of the polyethylene tubing was sealed with an impulse sealer. A 5 cm strip of felt was placed inside the sachet's open end, and a 2.5 mL aliquot of each treatment was pipetted onto the felt. The open end was then sealed shut with the impulse sealer, entirely sealing the saturated felt. A hole was punched at the top of each sachet, away from the treatment area to avoid damaging the sealed section, and green twist ties were used to hang the sachets in the center of a bush (FIG. 6B). Before loading the sachets, the weights of the empty sachets were taken. The sachets were weighed again directly after loading with the compounds and then a final time after the 24-hour test period to measure the emission rates of each volatile. In each cage, one of the bushes contained a sachet with the test volatile, while the other contained a blank sachet (control). Sachets were hung in the bushes 30 minutes prior to the start of experiments. Choice tests included: 1) control versus control; 2) control versus ethyl butanoate; […]) control versus ethyl (E)-but-2-enoate; and 4) control versus 2-pentylfuran. Fifty flies (1:1 male: female) were released in each cage at 18:00 hrs. After 24 hours, the berry clusters were collected and placed in 118 mL plastic cups. Berries were inspected under a dissection microscope for the number of eggs laid and were then incubated in 236.6 mL (8-oz) deli containers lined with two cotton pads on a laboratory bench at 22±2° C. and 55±5% relative humidity for two weeks to monitor for adult emergence. The study was replicated 10 times for each choice combination (N=4 choice combinations×2 bushes each×10 replicates=total of 80 bushes; N=50 flies×4 choice combinations×10 replicates=total of 2,000 flies). Semi-field cage data were analyzed using paired t-tests to determine differences between the number of eggs laid and adults that emerged from treated berries compared to control berries, and survival data were analyzed using two-way analysis of variance (ANOVA) (R statistical software version 4.1.1; R Development Core Team, Vienna, Austria). […]

| Structure (SMILES) | antennal (EAG) response [1] | deterrence index (DI) based on number of eggs laid [2] | difference in adult emergence between untreated and treated berries ([2]; berries incubated two weeks) | fewer eggs laid in treated berries than in control berries [2] [%] | strength of EAG response compared among treatments [1] | fewer flies (adult progeny) emerging from treated berries than from control berries ([2]; berries incubated two weeks) [%] |
| --- | --- | --- | --- | --- | --- | --- |
| CCCCCc1ccco1 [2-pentylfuran, reference compound] | dose-dependent antennal responses | performed similarly and were significantly different from the control | nonsignificant | 67 |  |  |
| CCCC(=O)OCC [ethyl butanoate] | dose-dependent antennal responses | performed similarly and were significantly different from the control |  | 54 | stronger antennal responses than 2-pentylfuran | 59 |
| C/C=C/C(=O)OCC [ethyl (E)-but-2-enoate] | dose-dependent antennal responses | performed similarly and were significantly different from the control |  | 75 | stronger antennal responses than 2-pentylfuran | 78 |
